Laboratory results taken from patent US9707272B2, “Method for the treatment of acne by administering IL-1β antibody” (UNIVERSITAT ZURICH, priority 2011, dated 2017).

Assays:
[1] = tested on: IL-1β secretion from human monocytes; assay: IL-1β secretion (ELISA) and maturation (western blot) from human monocytes exposed to P. acnes or inflammasome activators; assay type: cell-based; conditions: upLPS-primed human monocytes, P. acnes MOI=100, 6 h; Glibenclamide or KCl 65 mM added one hour prior, FIG. 3f
Method: For Western blotting cell culture supernatants were precipitated by addition of 0.25 volumes of trichloroacetic acid (100% w/v), 10 min incubation on ice and centrifugation for 5 min at 14,000 g. Protein pellet was washed twice with ice-cold acetone, centrifuged as described above and dried at 70° C. Cells were lysed with buffer (10 mM Tris pH 7.5, 1% NP-40, 150 mM NaCl, 5 mM EDTA,) containing a protease inhibitor cocktail. Proteins were separated on a NuPAGE gel in accordance with the manufacturer's protocol and transferred to a Hybond-C-Extra membrane by electroblotting. […] Appropriate HRP-conjugated secondary antibodies were used and proteins were detected using ECL reagent. […]
Human monocytes were primed with upLPS and infected with P. acnes (MOI=100) or stimulated with MSU crystals ([…]) in the presence of vehicle (DMSO) or pan-caspase inhibitor (Z-VAD-fmk, […]) for 24 h (FIG. 2a). IL-1β secretion was determined by ELISA and mature IL-1β release (IL-1β p17) by western blot. […]
THP1 cells were treated with vehicle (DMSO) or cytochalasin D (Cyt. D, […]) for one hour and then incubated with CFSE-labeled P. acnes (MOI=100) for 4 h or left untreated (FIG. 3a). Bacteria uptake was analyzed by FACS. […] IL-1β (FIG. 3f) and TNFα (FIG. 3g) release were determined after 6 h by ELISA. […]

[2] = tested on: C57BL/6 WT mice; assay: Intradermal P. acnes ear inflammation model in WT mice; assay type: in vivo, mouse; conditions: for ear swelling: intradermal P. acnes 20×10^6 CFU, 24 h, i.p. IL-1Ra 150 mg/kg three times at 8 h intervals or single i.p. anti-IL1β antibody, FIG. 4a; for subcutaneous neutrophil infiltration: intradermal P. acnes, histology (HE), i.p. IL-1Ra or anti-IL1β antibody, FIG. 4d
Method: (§1) C57BL/6 mice received three intraperitoneal (i.p.) injections of IL-1 receptor antagonist (IL-1Ra, Anakinra, 150 mg/kg) or PBS at 8 h intervals. One hour after first i.p. injection of IL-1Ra mice received intradermal injections of P. acnes or PBS. TNFα inhibitor (Etanercept) and anti-IL-1β antibody treated mice (Canakinumab, […]) C57BL/6 mice received i.p. injection 24 h before an intradermal injection of P. acnes or PBS. To make bone marrow chimeras indicated mice were lethally irradiated (10 Gy) and subsequently transplanted with indicated bone marrow. After bone marrow reconstitution (8 weeks later) mice were interdermally injected with P. acnes or PBS.
(§2) The ear thickness was measured using a micro caliper before and 24 h after bacterial injection. The percentage of ear thickness was calculated by comparing the ear thickness before and 24 hours after injection.
(§3) WT mice were injected intradermally with P. acnes (20×10^6 CFU/[…] in PBS, left ear) or with an equal amount of PBS (right ear) (FIG. 4a). Mice were treated with vehicle (n=11) or three intraperitoneal injections of IL-1Ra (Anakinra, 150 mg/kg, n=13) at the 8 h intervals or a single i.p. injection of anti-IL1β antibody ([…]) one hour prior to P. acnes or PBS challenge. The ear swelling as measured 24 hrs later is presented. ASC^−/− mice were challenged the same way with P. acnes. The resulting ear swelling (FIG. 4b) and pro- and mature-IL1β in ear extracts (FIG. 4c) are presented. […] WT mice reconstituted with WT (n=8-10), ASC^−/− (n=12) or NLRP3^−/− (n=8) bone marrow were challenged with P. acnes or PBS as described above. The resulting swelling (FIG. 4e) and histology of the infected ear (FIG. 4f) are presented. TLR2^−/− (n=10) were intradermally injected with P. acnes or PBS one hour after treatment with IL-1Ra (n=10) or anti-IL-1β antibody (n=9) as described above. The resulting ear swelling (FIG. 4g) and histology (FIG. 4i) are presented.

[3] = tested on: TLR2−/− mice; assay: Intradermal P. acnes ear inflammation model in TLR2-deficient mice; assay type: in vivo, mouse; conditions: treatment with IL-1Ra or anti-IL-1β antibody; for development of cutaneous inflammation: histology, FIG. 4i; for development of ear swelling: FIG. 4g
Method: as §1, §2, §3

## [Cl-].[K+] [KCl]
[1]
  IL-1β release: significant reduction

## COc1ccc(Cl)cc1C(=O)NCCc1ccc(S(=O)(=O)NC(=O)NC2CCCCC2)cc1 [glibenclamide, 5-Chloro-N-[2-[4-(cyclohexylcarbamoylsulfamoyl)phenyl]ethyl]-2-methoxy-benzamide]
[1]
  IL-1β release: significant reduction

## Anakinra [IL-1Ra]
[2]
  ear swelling: significant reduction
  subcutaneous neutrophil infiltration: significant reduction
[2]; listed as IL-1 receptor antagonist
  subcutaneous neutrophil infiltration: selective blockade
[3]
  development of cutaneous inflammation: blocked
  development of ear swelling: blocked

B1: Canakinumab (antibody, V domains shown)
VH: QVQLVESGGGVVQPGRSLRLSCAASGFTFSVYGMNWVRQAPGKGLEWVAIIWYDGDNQYYADSVKGRFTISRDNSKNTLYLQMNGLRAEDTAVYYCARDLRTGPFDYWGQGTLVTVSS
VL: EIVLTQSPDFQSVTPKEKVTITCRASQSIGSSLHWYQQKPDQSPKLLIKYASQSFSGVPSRFSGSGSGTDFTLTINSLEAEDAAAYYCHQSSSLPFTFGPGTKVDIK
modifications: antibody fragment
notes: Id; No. 1 and 2
[2]
  ear swelling: significant reduction
  subcutaneous neutrophil infiltration: significant reduction
[2]; listed as monoclonal anti-IL1β antibody
  subcutaneous neutrophil infiltration: selective blockade
[3]
  development of cutaneous inflammation: blocked
  development of ear swelling: blocked
